In brackets after ≈: the same amount, converted by molar mass.
Tests used:
[1] = system: trypsin; experiment: Protease panel: trypsin
[2] = in vitro; settings: mouse, hepatocytes; for hepatocyte CLint at 2 h, 2 µM: CLint (mouse hepatocytes)
[3] = Hamster hepatocyte stability; settings: cryopreserved hepatocytes; for half-life at 2 h, 2 µM: t1/2 (hamster hepatocytes), without ritonavir
[4] = Mouse hepatocyte stability; settings: mouse, cryopreserved hepatocytes
[5] = target: T1, Calpain-1 (Homo sapiens, UniProt P07384); experiment: Protease panel: Calpain-1; assay type: biochemical
T1 construct: erythrocytes; tissue Eurofins Discovery (assay service); host or cells: human erythrocytes
T1 sequence (P07384 1-714): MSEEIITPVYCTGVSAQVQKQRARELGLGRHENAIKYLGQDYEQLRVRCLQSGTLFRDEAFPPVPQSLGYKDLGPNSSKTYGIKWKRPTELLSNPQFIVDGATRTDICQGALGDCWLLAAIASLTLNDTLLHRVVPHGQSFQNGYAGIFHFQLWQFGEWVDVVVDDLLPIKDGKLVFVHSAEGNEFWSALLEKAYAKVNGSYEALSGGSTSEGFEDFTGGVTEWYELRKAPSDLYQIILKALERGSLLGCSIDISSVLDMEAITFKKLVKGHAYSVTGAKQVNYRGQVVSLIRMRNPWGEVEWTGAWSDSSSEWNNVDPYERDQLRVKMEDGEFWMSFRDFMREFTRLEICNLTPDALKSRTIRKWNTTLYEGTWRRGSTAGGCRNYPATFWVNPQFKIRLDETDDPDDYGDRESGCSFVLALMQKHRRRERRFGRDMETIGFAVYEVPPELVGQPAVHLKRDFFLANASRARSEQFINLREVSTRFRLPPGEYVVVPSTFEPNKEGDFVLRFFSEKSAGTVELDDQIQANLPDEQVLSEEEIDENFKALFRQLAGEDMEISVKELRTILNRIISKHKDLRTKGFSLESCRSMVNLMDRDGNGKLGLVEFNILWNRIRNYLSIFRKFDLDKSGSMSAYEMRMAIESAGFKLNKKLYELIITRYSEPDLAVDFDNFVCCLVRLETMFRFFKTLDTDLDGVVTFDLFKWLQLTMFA
T1 sequence (P04632 1-268 partner): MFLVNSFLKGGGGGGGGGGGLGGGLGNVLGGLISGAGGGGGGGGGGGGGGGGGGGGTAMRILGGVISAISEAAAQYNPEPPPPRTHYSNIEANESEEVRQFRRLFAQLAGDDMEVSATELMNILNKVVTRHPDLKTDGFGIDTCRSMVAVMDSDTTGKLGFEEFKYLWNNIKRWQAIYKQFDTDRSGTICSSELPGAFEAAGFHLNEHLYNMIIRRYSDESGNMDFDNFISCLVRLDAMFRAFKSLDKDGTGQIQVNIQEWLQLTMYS

[6] = in vitro; settings: hamster, hepatocytes; for hepatocyte CLint at 2 h, 4 µM: CLint (hamster hepatocytes + ritonavir 4:1); for hepatocyte CLint at 2 h, 2 µM: CLint (hamster hepatocytes)
[7] = target: T2, Cathepsin D (Homo sapiens, UniProt P07339); experiment: Protease panel: Cathepsin D; assay type: biochemical
T2 construct: Human liver; tissue Eurofins Discovery (assay service); host or cells: human liver

[8] = target: human cathepsin B (hCTSB) (Homo sapiens, UniProt P07858); experiment: hCTSB biochemical assay
[9] = target: T3, Neutrophil Elastase 2 (Homo sapiens, UniProt P08246); experiment: Protease panel: Neutrophil Elastase 2; assay type: biochemical
T3 construct: neutrophils; tissue Eurofins Discovery (assay service); host or cells: human neutrophils
T3 sequence (P08246 30-267): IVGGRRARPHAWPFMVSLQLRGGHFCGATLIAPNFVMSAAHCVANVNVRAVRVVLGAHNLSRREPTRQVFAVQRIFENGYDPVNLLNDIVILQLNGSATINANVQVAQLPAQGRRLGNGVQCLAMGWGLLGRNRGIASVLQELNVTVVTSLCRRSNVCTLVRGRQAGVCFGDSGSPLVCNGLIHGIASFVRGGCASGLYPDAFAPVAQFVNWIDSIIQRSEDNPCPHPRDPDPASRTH

[10] = target: T4, Caspase 2 (Homo sapiens, UniProt P42575); experiment: Protease panel: Caspase 2; assay type: biochemical
T4 construct: purchased Eurofins Discovery (assay service); host or cells: E. coli
T4 sequence (P42575 170-325 limits assumed): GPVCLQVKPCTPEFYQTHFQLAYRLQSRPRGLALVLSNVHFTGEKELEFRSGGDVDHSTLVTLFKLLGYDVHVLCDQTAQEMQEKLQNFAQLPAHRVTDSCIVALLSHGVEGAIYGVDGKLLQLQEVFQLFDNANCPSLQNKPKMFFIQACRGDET
T4 sequence (P42575 348-452 limits assumed): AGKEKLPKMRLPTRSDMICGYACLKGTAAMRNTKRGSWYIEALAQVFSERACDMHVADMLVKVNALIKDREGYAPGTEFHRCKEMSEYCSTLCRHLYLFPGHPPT

[11] = in vitro; settings: human, microsomes, pH 7.4
[12] = target: T5, thrombin (Homo sapiens, UniProt P00734); experiment: Protease panel: thrombin; assay type: biochemical
T5 construct: preincubated with thrombin (10 nM, Sigma); purchased Sigma-Aldrich

[13] = physchem; settings: pH 7.4
[14] = in vitro; settings: hamster, microsomes, pH 7.4
[15] = system: luciferase-expressing VSV (ΔG) pseudotyped with Spike from SARS-CoV-2; experiment: microbe, parasite or virus in culture; assay type: cell-based; settings: Vesicular stomatitis virus, Vero C1008, read-out: Entry reporter assay pEC50 (converted)
[16] = in vitro; settings: human, hepatocytes
[17] = Human liver microsomal stability; settings: microsomes, pH 7.4
[18] = target: hamster CTSL (Mesocricetus auratus, UniProt Q812A7); experiment: hamster CTSL biochemical assay
[19] = physchem; settings: pH 7.4; remark: listed apart in the source
[20] = in vitro; settings: African green monkey
[21] = 3 h, 2 µM
[22] = Human hepatocyte stability; settings: cryopreserved hepatocytes
[23] = % remaining at 120 min (hamster hepatocytes, compound/ritonavir 1:1)
[24] = % remaining at 120 min (hamster hepatocytes, compound/ritonavir 2:1)
[25] = CLint (hamster hepatocytes, compound/ritonavir 1:1)
[26] = CLint (hamster hepatocytes, compound/ritonavir 2:1)
[27] = t1/2 (hamster hepatocytes, compound/ritonavir 1:1)
[28] = t1/2 (hamster hepatocytes, compound/ritonavir 2:1)

hamster CTSL, sequence (Q812A7 entry or part of it): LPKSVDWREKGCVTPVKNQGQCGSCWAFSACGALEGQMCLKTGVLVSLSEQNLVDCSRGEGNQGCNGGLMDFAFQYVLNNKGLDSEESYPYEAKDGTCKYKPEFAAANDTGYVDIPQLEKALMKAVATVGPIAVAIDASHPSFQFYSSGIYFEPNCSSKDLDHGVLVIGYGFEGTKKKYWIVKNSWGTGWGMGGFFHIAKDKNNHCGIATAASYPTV
T2 sequence (P07339 65-412): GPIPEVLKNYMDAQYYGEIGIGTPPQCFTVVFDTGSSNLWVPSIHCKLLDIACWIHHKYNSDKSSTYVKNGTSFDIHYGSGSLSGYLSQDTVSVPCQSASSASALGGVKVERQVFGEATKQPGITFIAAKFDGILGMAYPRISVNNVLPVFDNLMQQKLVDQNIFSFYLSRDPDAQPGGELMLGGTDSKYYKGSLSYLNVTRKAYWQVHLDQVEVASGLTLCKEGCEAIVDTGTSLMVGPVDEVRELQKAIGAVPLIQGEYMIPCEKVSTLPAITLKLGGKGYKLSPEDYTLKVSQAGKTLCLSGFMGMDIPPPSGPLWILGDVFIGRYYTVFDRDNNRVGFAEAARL

COc1cccc2[nH]c(C(=O)N[C@@H](Cc3cccc(F)c3)C(=O)N[C@@H](C[C@@H]3CCNC3=O)C(=O)COc3c(F)c(F)c(CO)c(F)c3F)cc12 [compound 1, N-((S)-3-(3-Fluorophenyl)-1-oxo-1-(((S)-3-oxo-1-((S)-2-oxopyrrolidin-3-yl)-4-(2,3,5,6-tetrafluoro-4-(hydroxymethyl)phenoxy)butan-2-yl)amino)propan-2-yl)-4-methoxy-1H-indole-2-carboxamide]
Trypsin inhibition at 10 μM [1]: -3.4 ± 9.0% | hepatocyte CLint at 2 h, 2 µM [2]: 186 µL/min/1e6 cells | half-life at 2 h, 2 µM [3]: 7.9 min | half-life at 1 µM [4]: 9.3 min | inhibition at 10 µM [5]: 3% | remaining at 2 h, 1 µM [6, 23]: 2.51% | remaining at 2 h, 1 µM [6, 24]: 0.56% | hepatocyte CLint at 2 h, 4 µM [6]: 77.1 µL/min/1e6 cells | hepatocyte CLint at 2 h, 2 µM [6]: 87.6 µL/min/1e6 cells | hepatocyte CLint at 1 µM [6, 25]: 31.4 µL/min/1e6 cells | hepatocyte CLint at 1 µM [6, 26]: 48.1 µL/min/1e6 cells | half-life at 2 h, 4 µM ([6]; t1/2 (hamster hepatocytes + ritonavir 4:1)): 9 min | half-life at 1 µM [6, 27]: 22.1 min | half-life at 1 µM [6, 28]: 14.4 min | inhibition at 10 µM [7]: 8% | hCTSB biochemical assay pIC50 [8]: 6.36 | inhibition at 10 µM [9]: 2% | inhibition at 10 µM [10]: 11% | microsomal CLint [11]: 350 µL/min/mg | remaining at 1 h [11]: 0% | inhibition at 10 µM [12]: 0.2 ± 1.1% | solubility kinetic at 24 h [13]: 18 µM (≈ 12.6 µg/mL) | microsomal CLint at 1 µM [14]: 2370 µL/min/mg | remaining at 1 h, 1 µM [14]: 0% | EC50 [15]: 2.51 µM | hepatocyte CLint at 2 h, 2 µM [16]: 12.5 µL/min/1e6 cells | half-life [17]: 4.04 min | pIC50 (hamster CTSL) [18]: 8.34 ± 0.09 | logD at 1 h [19]: 1.65 | CC50 [20]: > 1 µM | mouse plasma protein binding, fraction bound (Fb) [21]: 98.06% | half-life at 2 h, 2 µM [22]: 55.5 min

CC(C)(O)c1c(F)c(F)c(OCC(=O)[C@H](C[C@@H]2CCNC2=O)NC(=O)[C@@H]2[C@@H]3[C@H](CN2C(=O)[C@@H](NC(=O)C(F)(F)F)C(C)(C)C)C3(C)C)c(F)c1F [compound 14, (1R,2S,5S)-3-((S)-3,3-Dimethyl-2-(2,2,2-trifluoroacetamido)butanoyl)-6,6-dimethyl-N-((S)-3-oxo-1-((S)-2-oxopyrrolidin-3-yl)-4-(2,3,5,6-tetrafluoro-4-(2-hydroxypropan-2-yl)phenoxy)butan-2-yl)-3-azabicyclo[3.1.0]hexane-2-carboxamide]
Trypsin inhibition at 10 μM [1]: 10.2 ± 3.3% | hepatocyte CLint at 1 µM ([2]; CLint (mouse hepatocytes + ritonavir 4:1)): 26.7 µL/min/1e6 cells | hepatocyte CLint at 2 h, 2 µM [2]: 112 µL/min/1e6 cells | half-life at 2 h, 2 µM [3]: 11.2 min | half-life at 1 µM ([3]; with ritonavir 0.25 µM (compound/ritonavir 4:1), t1/2 (hamster hepatocytes + ritonavir 4:1), compound/ritonavir 4:1): 15.5 min | half-life at 1 µM [4]: 15.5 min | inhibition at 10 µM [5]: -7% | remaining at 2 h, 1 µM [6, 23]: 28.8% | remaining at 2 h, 1 µM [6, 24]: 4.42% | hepatocyte CLint at 2 h, 4 µM [6]: 44.7 µL/min/1e6 cells | hepatocyte CLint at 2 h, 2 µM [6]: 62.1 µL/min/1e6 cells | hepatocyte CLint at 1 µM [6, 25]: 9.3 µL/min/1e6 cells | hepatocyte CLint at 1 µM [6, 26]: 25.4 µL/min/1e6 cells | half-life at 1 µM [6, 27]: 74.5 min | half-life at 1 µM [6, 28]: 27.2 min | inhibition at 10 µM [7]: -23% | hCTSB biochemical assay pIC50 [8]: < 4.30 | hCTSB activity (in words) ([8]; biochemical assay): no hCTSL and hCTSB activity was observed | inhibition at 10 µM [9]: 4% | inhibition at 10 µM [10]: 7% | microsomal CLint [11]: 40 µL/min/mg | remaining at 1 h [11]: 30.2% | inhibition at 10 µM [12]: 4.1 ± 1.5% | solubility kinetic at 24 h [13]: 77.2 µM (≈ 57 µg/mL) | microsomal CLint at 1 µM [14]: 377 µL/min/mg | remaining at 1 h, 1 µM [14]: 0.1% | EC50 [15]: > 30.2 µM | hepatocyte CLint at 2 h, 2 µM [16]: 6.6 µL/min/1e6 cells | half-life [17]: 35 min | pIC50 (hamster CTSL) [18]: 4.67 ± 0.33 | logD at 1 h [19]: 2.52 | CC50 [20]: > 0.501 µM | mouse plasma protein binding, fraction bound (Fb) [21]: 99.24% | half-life at 2 h, 2 µM [22]: 105 min
